Experiments:
[1] = Induction of anti-CD3 antibodies-stimulated human exhausted CD8+ T cell activation assessed fold increase in CTLA4 expression measured by flow cytometry analysis; type: functional, T cell line; further: reference of the scale not given here
[2] = Induction of anti-CD3/CD28 antibodies-stimulated human CD8+ T cell activation at 10 uM assessed fold increase in CD69 expression measured by flow cytometry analysis; type: functional, T cell line
[3] = Induction of anti-CD3 antibodies-stimulated human T cell activation at 10 uM assessed fold increase in IFN-gamma secretion measured by ELISA assay; type: functional, T cell line; further: reference of the scale not given here
[4] = Induction of anti-CD3 antibodies-stimulated human CD4+ T cell activation at 10 uM assessed fold increase in CD69 expression measured by flow cytometry analysis; type: functional, T cell line; further: reference of the scale not given here
[5] = Induction of activation of human CD56+ CD3- NK cells co-cultured with human K562 cells in 1:1 ratio and assessed as increase in IFN-gamma secretion at 2.5 uM measured by ELISA assay; type: functional, Natural killer cell
[6] = Induction of anti-CD3 antibodies-stimulated human exhausted CD4+ T cell activation assessed fold increase in CTLA4 expression measured by flow cytometry analysis; type: functional, T cell line; further: reference of the scale not given here
[7] = Induction of anti-CD3/CD28 antibodies-stimulated human CD4+ T cell activation at 1.11 uM assessed fold increase in cell proliferation measured by flow cytometry analysis; type: functional, T cell line
[8] = Induction of activation of human CD56+ CD3- NK cells co-cultured with human K562 cells in 1:1 ratio and assessed as increase in TNF-alpha secretion at 2.5 uM measured by ELISA assay; type: functional, Natural killer cell
[9] = Induction of anti-CD3 antibodies-stimulated human T cell activation at 10 uM assessed fold increase in GM-CSF secretion measured by ELISA assay; type: functional, T cell line; further: reference of the scale not given here
[10] = Induction of anti-CD3/CD28 antibodies-stimulated human CD8+ T cell activation at 1.11 uM assessed fold increase in CD69 expression measured by flow cytometry analysis; type: functional, T cell line
[11] = Induction of anti-CD3/CD28 antibodies-stimulated human T cell activation at 1 uM assessed fold increase in IL-2 secretion measured by ELISA assay; type: functional, T cell line
[12] = Induction of activation of human CD56+ CD3- NK cells co-cultured with human K562 cells in 1:1 ratio and assessed as increase in TNF-alpha secretion at 0.625 uM measured by ELISA assay; type: functional, Natural killer cell
[13] = Induction of anti-CD3 antibodies-stimulated human CD8+ T cell activation at 10 uM assessed fold increase in cell proliferation measured by flow cytometry analysis; type: functional, T cell line; further: reference of the scale not given here
[14] = Induction of anti-CD3/CD28 antibodies-stimulated human T cell activation at 10 uM assessed fold increase in TNF-alpha secretion measured by ELISA assay; type: functional, T cell line
[15] = Induction of anti-CD3 antibodies-stimulated human T cell activation at 1.11 uM assessed fold increase in GM-CSF secretion measured by ELISA assay; type: functional, T cell line; further: reference of the scale not given here
[16] = Induction of anti-CD3 antibodies-stimulated human T cell activation at 8 uM assessed fold increase in IL-2 secretion measured by ELISA assay; type: functional, T cell line; further: reference of the scale not given here
[17] = Induction of anti-CD3 antibodies-stimulated human CD8+ T cell activation at 1.11 uM assessed fold increase in CD69 expression measured by flow cytometry analysis; type: functional, T cell line; further: reference of the scale not given here
[18] = Induction of anti-CD3/CD28 antibodies-stimulated human T cell activation at 4 uM assessed fold increase in IL-2 secretion measured by ELISA assay; type: functional, T cell line
[19] = Induction of anti-CD3 antibodies-stimulated human T cell activation at 1 uM assessed fold increase in IL-2 secretion measured by ELISA assay; type: functional, T cell line; further: reference of the scale not given here
[20] = Induction of anti-CD3 antibodies-stimulated human CD8+ T cell activation at 1.11 uM assessed fold increase in cell proliferation measured by flow cytometry analysis; type: functional, T cell line; further: reference of the scale not given here
[21] = Induction of anti-CD3/CD28 antibodies-stimulated human T cell activation at 4 uM assessed fold increase in CD25 expression measured by ELISA assay; type: functional, T cell line
[22] = Induction of anti-CD3 antibodies-stimulated human exhausted T cell activation assessed fold increase in IL-2 secretion measured by ELISA assay; type: functional, T cell line; further: reference of the scale not given here
[23] = Induction of anti-CD3 antibodies-stimulated human T cell activation at 1 uM assessed fold increase in CD25 expression measured by ELISA assay; type: functional, T cell line; further: reference of the scale not given here
[24] = Induction of anti-CD3/CD28 antibodies-stimulated human T cell activation at 1.11 uM assessed fold increase in TNF-alpha secretion measured by ELISA assay; type: functional, T cell line
[25] = Induction of anti-CD3 antibodies-stimulated human CD4+ T cell activation at 1.11 uM assessed fold increase in CD69 expression measured by flow cytometry analysis; type: functional, T cell line; further: reference of the scale not given here
[26] = Induction of anti-CD3/CD28 antibodies-stimulated human T cell activation at 0.3 uM assessed fold increase in CD25 expression measured by ELISA assay; type: functional, T cell line
[27] = Induction of anti-CD3/CD28 antibodies-stimulated human T cell activation at 1.11 uM assessed fold increase in IFN-gamma secretion measured by ELISA assay; type: functional, T cell line
[28] = Induction of anti-CD3/CD28 antibodies-stimulated human T cell activation at 1.11 uM assessed fold increase in GM-CSF secretion measured by ELISA assay; type: functional, T cell line
[29] = Induction of activation of human CD56+ CD3- NK cells co-cultured with human K562 cells in 1:1 ratio and assessed as increase in IFN-gamma secretion at 0.625 uM measured by ELISA assay; type: functional, Natural killer cell
[30] = Induction of anti-CD3/CD28 antibodies-stimulated human CD4+ T cell activation at 10 uM assessed fold increase in cell proliferation measured by flow cytometry analysis; type: functional, T cell line
[31] = Induction of anti-CD3/CD28 antibodies-stimulated human anergic T cell activation at 0.37 uM assessed fold increase in IFN-gamma secretion measured by ELISA assay; type: functional, T cell line
[32] = Induction of anti-CD3/CD28 antibodies-stimulated human anergic T cell activation at 1.11 uM assessed fold increase in IFN-gamma secretion measured by ELISA assay; type: functional, T cell line
[33] = Induction of anti-CD3/CD28 antibodies-stimulated human CD8+ T cell activation at 10 uM assessed fold increase in cell proliferation measured by flow cytometry analysis; type: functional, T cell line
[34] = Induction of activation of human CD56+ CD3- NK cells co-cultured with human K562 cells in 1:1 ratio and assessed as increase in IFN-gamma secretion at 10 uM measured by ELISA assay; type: functional, Natural killer cell
[35] = Induction of anti-CD3 antibodies-stimulated human exhausted T cell activation assessed fold increase in GM-CSF secretion measured by ELISA assay; type: functional, T cell line; further: reference of the scale not given here
[36] = Induction of anti-CD3/CD28 antibodies-stimulated human CD8+ T cell activation at 1.11 uM assessed fold increase in cell proliferation measured by flow cytometry analysis; type: functional, T cell line
[37] = tested on: B cell; assay: Induction of anti-IgM-stimulated human CD20+ B cell activation at 10 to 1000 uM assessed as increase in CD69 expression measured as mean fluorescence intensity AUC by flow cytometry analysis; type: functional, cell-based; details: dose 10-1000 µM
[38] = Induction of anti-CD3 antibodies-stimulated human CD8+ T cell activation at 10 uM assessed fold increase in CD69 expression measured by flow cytometry analysis; type: functional, T cell line; further: reference of the scale not given here

| SMILES | fold change (FC) [1] | fold change (FC) [2] | fold change (FC) [3] | fold change (FC) [4] | fold change (FC) [5] | fold change (FC) [6] | fold change (FC) [7] | fold change (FC) [8] | fold change (FC) [9] | fold change (FC) [10] | fold change (FC) [11] | fold change (FC) [12] | fold change (FC) [13] | fold change (FC) [14] | fold change (FC) [15] | fold change (FC) [16] | fold change (FC) [17] | fold change (FC) [18] | fold change (FC) [19] | fold change (FC) [20] | also measured |
| --- | --- | --- | --- | --- | --- | --- | --- | --- | --- | --- | --- | --- | --- | --- | --- | --- | --- | --- | --- | --- | --- |
| C[C@H](Cc1nncn1C)c1cccc(N2Cc3c(ccnc3C3CC3)C2=O)c1 | <=1.4 | 1.201 | 2.01 | 1.201 | 1.01 | <=1.4 | 2.01 | 1.01 | 2.01 | <=1.2 | 1.01 | 1.01 | 3.01 | 2.01 | 1.51 | >=0.201 | <=1.2 | 1.01 | 0.151 | <=2 | fold change (FC) [21]: 1.31; fold change (FC) [22]: <=2.5; fold change (FC) [23]: 0.601; fold change (FC) [24]: 1.51; fold change (FC) [25]: <=1.2; fold change (FC) [26]: 1.01; fold change (FC) [27]: <=2; fold change (FC) [28]: 2.01; fold change (FC) [29]: 2.01; fold change (FC) [30]: >4; fold change (FC) [31]: <=2.5; fold change (FC) [32]: <=2.5; fold change (FC) [33]: 3.01; fold change (FC) [34]: 2.01; fold change (FC) [35]: <=1.4; fold change (FC) [36]: <=2; AUC [37]: 0.5; fold change (FC) [38]: 1.201 |
| Cc1n[nH]c(C)c1-c1cc2c(c(C(F)(F)F)c1)CN(c1cccc(C3(Cc4nncn4C)COC3)c1)C2=O | >1.61 | 1.201 | <=2 | >1.601 | 1.01 | >1.61 | >4 | 1.01 | 2.01 | 1.201 | 2.51 | <=1 | >4 | 2.01 | 1.51 | >=0.201 | 1.201 | >=7.5 | 0.101 | 3.01 | fold change (FC) [21]: 1.31; fold change (FC) [22]: <=2.5; fold change (FC) [23]: >=1.001; fold change (FC) [24]: 1.51; fold change (FC) [25]: 1.401; fold change (FC) [26]: 1.01; fold change (FC) [27]: <=2; fold change (FC) [28]: 1.51; fold change (FC) [29]: 1.01; fold change (FC) [30]: >4; fold change (FC) [31]: <=2.5; fold change (FC) [32]: <=2.5; fold change (FC) [33]: 3.01; fold change (FC) [34]: 2.01; fold change (FC) [35]: <=1.4; fold change (FC) [36]: 2.01; AUC [37]: 1.01; fold change (FC) [38]: 1.401 |
| C[C@H](Cc1nncn1C)c1cccc(NC(=O)c2n[nH]c3c2CCC3)c1 | <=1.4 | 1.201 | <=2 | 1.201 | <=1 | <=1.4 | >4 | 1.01 | 1.51 | 1.201 | 1.01 | 1.01 | 2.01 | 2.01 | <=1.5 | 0.151 | 1.401 | 2.51 | 0.101 | >4 | fold change (FC) [21]: 1.01; fold change (FC) [22]: <=2.5; fold change (FC) [23]: 0.601; fold change (FC) [24]: <=1.5; fold change (FC) [25]: >1.601; fold change (FC) [26]: 1.01; fold change (FC) [27]: <=2; fold change (FC) [28]: <=1.5; fold change (FC) [29]: 1.01; fold change (FC) [30]: >4; fold change (FC) [31]: <=2.5; fold change (FC) [32]: <=2.5; fold change (FC) [33]: 2.01; fold change (FC) [34]: 2.01; fold change (FC) [35]: <=1.4; fold change (FC) [36]: 3.01; AUC [37]: 0.5; fold change (FC) [38]: <=1.2 |
| C[C@H](Cc1nncn1C)c1cccc(N2Cc3c(cc(CN4CC[C@H](F)C4)cc3C(F)(F)F)C2=O)c1 | >1.61 | 1.201 | >4 | >1.601 | >=5 | >1.61 | >4 | >=5 | >4 | 1.201 | >=7.5 | 2.01 | >4 | 2.01 | 2.01 | >=0.201 | 1.401 | >=7.5 | 0.151 | >4 | fold change (FC) [21]: 1.31; fold change (FC) [22]: >3.01; fold change (FC) [23]: >=1.001; fold change (FC) [24]: 2.01; fold change (FC) [25]: >1.601; fold change (FC) [26]: 1.01; fold change (FC) [27]: >4; fold change (FC) [28]: >4; fold change (FC) [29]: 2.01; fold change (FC) [30]: >4; fold change (FC) [31]: >4.01; fold change (FC) [32]: >4.01; fold change (FC) [33]: >4; fold change (FC) [34]: >=5; fold change (FC) [35]: >1.61; fold change (FC) [36]: >4; AUC [37]: 1.01; fold change (FC) [38]: 1.401 |
